Data published in article PMC9611521, “Optimization of Resveratrol Used as a Scaffold to Design Histone Deacetylase (HDAC-1 and HDAC-2) Inhibitors” (Pharmaceuticals, 2022).

Assays:
Type in all cases: biochemical
Conditions in all cases: compound at 10 µM
HDAC-10 = molecular target: T1, HDAC-10 (Homo sapiens, UniProt Q969S8); test: Enzymatic HDAC selectivity panel, HDAC-10
T1 sequence (Q969S8 1-669): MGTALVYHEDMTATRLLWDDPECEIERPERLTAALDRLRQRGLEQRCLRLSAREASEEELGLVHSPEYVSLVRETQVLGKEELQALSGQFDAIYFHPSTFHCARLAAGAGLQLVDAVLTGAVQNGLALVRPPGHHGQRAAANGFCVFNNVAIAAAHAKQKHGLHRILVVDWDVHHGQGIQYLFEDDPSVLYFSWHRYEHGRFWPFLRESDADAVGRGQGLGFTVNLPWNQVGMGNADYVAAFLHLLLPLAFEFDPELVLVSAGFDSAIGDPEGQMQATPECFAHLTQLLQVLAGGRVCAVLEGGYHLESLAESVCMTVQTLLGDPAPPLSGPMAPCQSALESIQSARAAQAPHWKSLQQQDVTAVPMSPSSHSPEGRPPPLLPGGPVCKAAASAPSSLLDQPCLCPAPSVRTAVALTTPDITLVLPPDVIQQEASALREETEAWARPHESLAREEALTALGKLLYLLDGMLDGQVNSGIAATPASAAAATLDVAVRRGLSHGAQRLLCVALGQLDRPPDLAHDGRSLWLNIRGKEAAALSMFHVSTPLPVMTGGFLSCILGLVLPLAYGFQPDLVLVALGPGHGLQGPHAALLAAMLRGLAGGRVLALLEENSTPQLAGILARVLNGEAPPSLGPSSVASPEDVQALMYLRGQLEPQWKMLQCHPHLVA
Description: (§1) Enzymatic assays to evaluate HDAC inhibition were performed, and the design involved three steps: (a) Preliminary screening to identify the most promising compounds; (b) Evaluation by a panel of HDAC isoforms to investigate selectivity; and (c) Determination of IC50 values. Firstly, compounds (4–7; 15–26) were evaluated at 10 µM against HDAC-1 and HDAC-2 (Table 2).
(§2) The enzymatic assay to evaluate HDAC inhibitory effects for all final compounds against the distinct isoforms was carried out in accordance with the previously described procedures (Lopes et al., 2021). All compounds were initially screened at 10 µM against HDAC-1 and HDAC-2. […] All the compounds were dissolved in DMSO. A serial dilution of the compounds was performed in 100% DMSO with the highest concentration at 1 mM. Each intermediate compound dilution (in 100% DMSO) was diluted 10x in assay buffer to form a 10% DMSO intermediate dilution in HDAC assay buffer. 5 µL of this dilution was added to a 50 µL reaction to bring the final concentration of DMSO to 1% in all the reactions. […] The fluorescence intensity was measured at an excitation of 360 nm and emission of 460 nm using a Tecan Infinite M1000 microplate reader, and the percentage of activity was calculated using the formula: % activity = (F − Fb)/(Ft − Fb), where F = the intensity of fluorescence in the presence of the compound. […]

HDAC-7 = molecular target: T2, HDAC-7 (Homo sapiens, UniProt Q8WUI4); test: Enzymatic HDAC selectivity panel, HDAC-7
T2 sequence (Q8WUI4 1-952): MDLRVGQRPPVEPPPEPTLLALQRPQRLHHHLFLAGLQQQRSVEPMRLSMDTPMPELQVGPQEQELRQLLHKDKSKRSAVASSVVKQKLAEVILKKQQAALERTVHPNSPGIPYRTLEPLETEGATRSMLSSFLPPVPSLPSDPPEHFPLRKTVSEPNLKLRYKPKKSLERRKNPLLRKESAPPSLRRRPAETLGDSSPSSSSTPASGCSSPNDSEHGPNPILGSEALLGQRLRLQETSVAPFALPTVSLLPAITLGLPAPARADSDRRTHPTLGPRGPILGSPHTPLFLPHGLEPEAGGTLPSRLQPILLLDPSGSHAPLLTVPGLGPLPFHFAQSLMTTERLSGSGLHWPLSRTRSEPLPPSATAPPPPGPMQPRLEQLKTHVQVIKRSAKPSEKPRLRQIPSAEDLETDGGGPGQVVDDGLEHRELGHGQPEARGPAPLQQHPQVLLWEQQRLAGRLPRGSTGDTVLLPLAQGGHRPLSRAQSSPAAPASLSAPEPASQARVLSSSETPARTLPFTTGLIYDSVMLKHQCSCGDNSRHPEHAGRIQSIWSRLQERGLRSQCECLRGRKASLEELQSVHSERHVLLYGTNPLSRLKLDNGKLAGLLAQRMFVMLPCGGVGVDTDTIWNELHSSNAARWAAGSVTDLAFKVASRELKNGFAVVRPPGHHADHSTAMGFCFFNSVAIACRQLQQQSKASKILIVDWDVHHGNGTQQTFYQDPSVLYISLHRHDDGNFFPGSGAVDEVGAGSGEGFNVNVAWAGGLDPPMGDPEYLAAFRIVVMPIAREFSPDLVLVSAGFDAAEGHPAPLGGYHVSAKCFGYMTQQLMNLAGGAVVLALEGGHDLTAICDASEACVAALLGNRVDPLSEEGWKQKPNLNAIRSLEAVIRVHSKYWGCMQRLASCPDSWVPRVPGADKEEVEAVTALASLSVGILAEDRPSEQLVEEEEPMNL
Description: as §1, §2

HDAC-8 = molecular target: T3, HDAC-8 (Homo sapiens, UniProt Q9BY41); test: Enzymatic HDAC selectivity panel, HDAC-8
T3 sequence (Q9BY41 1-377): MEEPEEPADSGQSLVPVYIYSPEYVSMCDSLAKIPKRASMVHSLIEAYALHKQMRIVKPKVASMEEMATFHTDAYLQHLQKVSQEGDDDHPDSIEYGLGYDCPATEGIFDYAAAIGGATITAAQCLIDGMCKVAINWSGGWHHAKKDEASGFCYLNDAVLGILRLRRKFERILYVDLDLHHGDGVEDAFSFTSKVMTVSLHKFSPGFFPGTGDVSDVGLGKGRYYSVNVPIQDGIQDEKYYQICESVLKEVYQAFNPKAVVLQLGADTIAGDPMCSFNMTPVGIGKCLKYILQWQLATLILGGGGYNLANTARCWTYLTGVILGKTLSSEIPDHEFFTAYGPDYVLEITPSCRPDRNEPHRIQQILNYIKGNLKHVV
Description: as §1, §2

## Nc1ccc(CCc2ccc(C(=O)Nc3ccccc3N)cc2)cc1 [Compound (5)]
HDAC-10
  inhibition at 10 µM: 60 ± 1.4%
HDAC-7
  inhibition at 10 µM: 15 ± 0.7%
HDAC-8
  inhibition at 10 µM: 13 ± 1%
